Test results published in patent US8637040B2, “Genus-wide chlamydial peptide vaccine antigens” (priority 2008, dated 2014).

Assays:
[1] = test system: chlamydia; assay: Gross anatomical observation of genital tract inflammation after challenge; type: in vivo, mouse; conditions: female mice primed and boosted twice SC, necropsy ~28 days post-challenge, vs adjuvant-only control
Excerpt: FIG. 15A-15C is a set of three photographs showing the gross morphology of tissues of the female reproductive tract of mice immunized and then challenged 28 days earlier with Pep4 or Pep7. Mice had been primed and boosted twice SC, as above, and were challenged with chlamydia 2 weeks later, rechallenged and sacrificed 4 weeks after re-challenge. Inflamed genital tracts outlined in dashed lines.
Genital tracts were exposed at necropsy ˜28 days post-challenge to score inflammatory changes (and then removed for histological analysis). […] Representative examples for recipients of Peptides 4 and 7 are shown in the center and right panels, respectively. Yellow arrows point to uterine horns (which are further demarcated with dashed lines). It is evident that the peptide immunogens reduced the gross pathology of the genital tract even weeks after challenge. This has been reproduced in a second experiment in which control mice received an irrelevant peptide instead of Peptides 4 or 7. Based on what is known in the art from other contexts, the histopathological results are expected to be consistent with these gross anatomical observations.

[2] = test system: human sera; assay: ELISA of human serum samples on 4 peptides (Example XI); type: binding
Description: Blood was collected prior to immunizations and prior to the two boosts. Sera were tested in ELISA. The ELISA method used in the present examples, in which many if not all the parameters and conditions may be varied or modified in ways that are completely conventional in the art, is described below. • 1. 96 well plates (Immulon HBX4) were coated with 50 μl of diluted antigen (peptides at 1 μg/well made in carbonate buffer) and incubated overnight at 4° C. • 2. Unbound antigen was removed by flicking the contents of the plate into a sink without further washing. • 3. Non-specific binding was blocked or prevented by adding 300 μL/well of 4% BSA/PBS-Tween 20 (0.05%). This was allowed to incubate for 2 hour at room temperature. • 4. The plates were washed once with PBS-Tween 20 (0.05%) and 50 μl of primary antibody was added per well at appropriate dilutions. When using serum, the starting dilution was 1:40 and was further diluted by doublings to 1:80, 1:160, and 1:320 (or higher as desired). Plates were incubated for 1 hour at 37° C. • 5. Plates were washed three times with PBS-Tween (0.05%) as above and 100 μl of secondary antibody was added per well at appropriate dilutions. For alkaline phosphatase-conjugated goat anti-mouse IgG-AP, a dilution of 1:500 was used here. Plates were incubated for 1 hour at 37° C. • 6. Plates were again washed three times as above and 200 μl of substrate solution for Alkaline phosphatase (p-nitro phenyl phosphate or pNPP) was added at a concentration of 5 mg/ml. The color reaction was read in an automated microplate reader at a frequency of […] and the absorbance (or optical density) was registered (referred to as A405 or OD405) Several important observations were made in these tests against the 4 peptides: (a) all 4 peptides were immunogenic and induced increasing anti-peptide responses with subsequent boosts in all mice (except in one non-responder) (FIG. 3). […] See also FIG. 16A-16B
Human sera were tested by PCR for expression of several chlamydial genes, by IHC against C. trachomatis-infected cells and by ELISA against several of the peptides of the present invention. Results are shown in Table 7 (below) which include results from PCR-studies for presence of DNA encoding the chlamydial Major Outer Membrane Protein (MOMP) in human peripheral blood mononuclear cells (PBMC) (which are primarily lymphocytes and monocytes) and cervical swabs
Also shown is IHC staining of C. trachomatis-infected human HEp2 cells and binding of antibodies in the patient samples to four peptides of the present invention (Pep4, 7, 8, and 10) in ELISA.

[3] = test system: C. trachomatis-infected HEp2 cells; assay: Indirect immunofluorescence of immune sera on infected HEp2 cells; type: cell-based, human; conditions: sera 1:40 dilution, FITC anti-mouse IgG
Excerpt: Micrographs of HEp2 cells infected with C. trachomatis are immunostained (by indirect immunofluorescence) with sera (1:40 dilution) from mice immunized with the designated peptides (A-E) or soluble. mAb2 (F). FITC anti-mouse IgG was the detecting antibody. Arrows point to distinct differences in targets of the immune sera. Antibodies in panels A-C recognized EB and RB and possibly some matrix material in the inclusion. Antibodies in D-E also recognized targets in the inclusion matrix and inclusion membrane, similar to immune sera raised against the older vaccine candidate, the entire mAb2 (F). 40× original magnification. Samples are counterstained with Evans blue.
HEp2 cells were infected with C. trachomatis were subjected to cytocentrifugation to deposit them onto microscope slides. After fixation (MeOH) they were stained with sera (1:40 dilution) from mice immunized with the indicated peptides or with soluble mAb2. The binding of the antibodies to the cells was detected using a fluorescent (FITC-labeled) secondary Ab, an anti-mouse IgG. Results appear in FIGS. 9A-F.

## AFPQFRSATLLL [Pep4]
[1]
  gross inflammation / pathology of the genital tract: not nearly as inflamed
[2]; human serum sample # 1
  ELISA 1:40 on 4 peptides Scale: 1+-3+: 2
[2]; human serum sample # 2
  ELISA 1:40 on 4 peptides Scale: 1+-3+: 0.75
[2]; human serum sample # 3
  ELISA 1:40 on 4 peptides Scale: 1+-3+: 2.5
[2]; human serum sample # 5
  ELISA 1:40 on 4 peptides Scale: 1+-3+: 2
[2]; human serum sample # 7
  ELISA 1:40 on 4 peptides Scale: 1+-3+: 0.75
[2]; human serum sample # 8
  ELISA 1:40 on 4 peptides Scale: 1+-3+: 3
[2]; human serum sample # 9
  ELISA 1:40 on 4 peptides Scale: 1+-3+: 3
[2]; human serum sample # 10
  ELISA 1:40 on 4 peptides Scale: 1+-3+: 3
[2]; human serum sample # 12
  ELISA 1:40 on 4 peptides Scale: 1+-3+: 2
[2]; human serum sample # 13
  ELISA 1:40 on 4 peptides Scale: 1+-3+: 2
[2]; human serum sample # 16
  ELISA 1:40 on 4 peptides Scale: 1+-3+: 2
[2]; human serum sample # 18
  ELISA 1:40 on 4 peptides Scale: 1+-3+: 2.5
[2]; human serum sample # 21
  ELISA 1:40 on 4 peptides Scale: 1+-3+: 1.5
[2]; human serum sample # 22
  ELISA 1:40 on 4 peptides Scale: 1+-3+: 1.5
[2]; human serum sample # 23
  ELISA 1:40 on 4 peptides Scale: 1+-3+: 2
[2]; human serum sample # 24
  ELISA 1:40 on 4 peptides Scale: 1+-3+: 3
[2]; human serum sample # 26
  ELISA 1:40 on 4 peptides Scale: 1+-3+: 2
[3]
  structures recognized by immune sera in infected cells: recognized EB and metabolically active, non-infectious reticulate bodies (RB)
